Reference: ChEMBL document CHEMBL1139720, “Synthesis and antiproliferative activity of (2R,3R)-disubstituted tetrahydropyrans” (2006)

Tests used:
Assay type in all cases: functional
[1] = tested on: A2780; test: Antiproliferative activity against human A2780 cells after 48 hrs by SRB assay; conditions: A2780, 48 h
[2] = tested on: SW1573; test: Antiproliferative activity against human SW1573 cells after 48 hrs by SRB assay; conditions: SW1573, 48 h
[3] = tested on: WiDr; test: Antiproliferative activity against human WiDr cells after 48 hrs by SRB assay

COC(=O)/C=C\[C@H]1OCCC[C@H]1O[Si](C)(C)C(C)(C)C
GI50 [1]: 7.3 µM
LC50 [1]: 86 µM
TGI [1]: 39 µM
GI50 [2]: 6.3 µM
TGI [2]: 68 µM
GI50 [3]: 38 µM

O=C(/C=C/[C@H]1OCCC[C@H]1O)OCc1ccccc1
GI50 [1]: > 100 µM
GI50 [2]: > 100 µM
GI50 [3]: > 100 µM

COC(=O)/C=C/[C@H]1OCCC[C@@H]1O[Si](C)(C)C(C)(C)C
GI50 [1]: 28 µM
GI50 [2]: 47 µM
GI50 [3]: 84 µM

C=C[C@H]1OCCC[C@H]1O[Si](C)(C)C(C)(C)C
GI50 [1]: 86 µM
GI50 [2]: > 100 µM
GI50 [3]: > 100 µM

CC(C)(C)[Si](C)(C)OC[C@H]1OCCC[C@H]1O[Si](C)(C)C(C)(C)C
GI50 [1]: > 100 µM
GI50 [2]: > 100 µM
GI50 [3]: > 100 µM

CC(C)(C)[Si](C)(C)O[C@@H]1CCCO[C@@H]1/C=C\C(=O)OCc1ccccc1
GI50 [1]: 29 µM
TGI [1]: 77 µM
GI50 [2]: 26 µM
TGI [2]: 92 µM
GI50 [3]: 20 µM
TGI [3]: 64 µM

O=C1C[C@H]2OCCC[C@H]2O1
GI50 [1]: > 100 µM
GI50 [2]: > 100 µM
GI50 [3]: > 100 µM

COC(=O)/C=C/[C@H]1OCCC[C@H]1O
GI50 [1]: > 100 µM
GI50 [2]: > 100 µM
GI50 [3]: > 100 µM

CC(C)(C)[Si](C)(C)O[C@@H]1CCCO[C@@H]1/C=C/C(=O)OCc1ccccc1
GI50 [1]: 32 µM
GI50 [2]: 37 µM
GI50 [3]: 90 µM

O=C(C[C@H]1OCCC[C@H]1O)OCc1ccccc1
GI50 [1]: > 100 µM
GI50 [2]: > 100 µM
GI50 [3]: > 100 µM

CC(C)(C)[Si](C)(C)O[C@@H]1CCCO[C@@H]1/C=C/C(=O)O
GI50 [1]: > 100 µM
GI50 [2]: > 100 µM
GI50 [3]: > 100 µM

COC(=O)/C=C/[C@H]1OCCC[C@H]1O[Si](C)(C)C(C)(C)C
GI50 [1]: 98 µM
GI50 [2]: > 100 µM
GI50 [3]: > 100 µM

CC(C)(C)[Si](C)(C)O[C@@H]1CCCO[C@@H]1CO
GI50 [1]: > 100 µM
GI50 [2]: > 100 µM
GI50 [3]: > 100 µM

CC(C)(C)[Si](C)(C)O[C@@H]1CCCO[C@@H]1/C=C\CO
GI50 [1]: > 100 µM
GI50 [2]: > 100 µM
GI50 [3]: > 100 µM

O=C1C=C[C@H]2OCCC[C@H]2O1
GI50 [1]: 8.3 µM
TGI [1]: 35 µM
GI50 [2]: 5.7 µM
GI50 [3]: 39 µM

CC(C)(C)[Si](C)(C)O[C@@H]1CCCO[C@@H]1CC(=O)OCc1ccccc1
GI50 [1]: 23 µM
GI50 [2]: 30 µM
GI50 [3]: 19 µM
